Measurements as given in patent US20240299328A1, “COMPOSITIONS COMPRISING 15-HEPE AND METHODS OF TREATING AND/OR PREVENTING HEMATOLOGIC DISORDERS AND RELATED DISEASES” (Afimmune Limited, priority 2023, published 2024).

System: humanized sickle cell (SS) mice exposed to H/R stress
Test: SCD (SS) mice exposed to H/R stress: lung, kidney and liver histopathology
Assay type: in vivo
Set-up: key to Lung thrombi / Kidney thrombi / Liver thrombi: 0: no thrombi; +: presence of thrombi per field at the magnification ×250
Details: 1000 mg/Kg/d for 6 weeks
Procedure: Lung, kidney and liver histological analysis: Paraffin-embedded tissue blocks were cut into 2-3 μm sections and mounted on adhesion microscope glass slides for Hematoxylin-Eosin (H&E), and Perls' staining for iron content. The analysis was performed on four different fields at a magnification 200×. Tissue pathological analysis, inflammatory cell infiltrate, the presence of thrombi and iron deposition were carried out by blinded pathologists as previously described.
(§1) Score for inflammatory cell infiltrate. Quantification of inflammatory cell infiltrates was expressed as the mean of cells per field at magnification of X250, as resulting by the analysis of at least 10 different fields on each hematoxylin-eosin-stained whole lung section. Data are expressed as means±SEM; * p<0.05 compared to normoxia.
Thrombi: 0: no thrombi; +: presence of thrombi per field at the magnification ×250.
Score for inflammatory cell infiltrate. Quantification of inflammatory cell infiltration in renal cortex of kidney was determined in hematoxylin-eosin-stained sections using a 0 to 4 scale based on the percentage of cell infiltrates occupied area in each filed. 0 (no sign of infiltration); 1 (1-10% of the area with cell infiltration); 2 (11-25%); 3 (26-50%); 4 […]. The mean of 15 randomly selected field were analyzed at magnification ×400. Data are expressed as means±SEM; * p<0.05 compared to normoxia; ºp<0.05 compared to vehicle. Thrombi: 0: no thrombi; +: presence of thrombi presence of thrombi per field at the magnification ×250.
as §1, with “×250,” for “X250,”, “liver” for “lung”
Thrombi: 0: no thrombi; +: presence of thrombi presence of thrombi per field at the magnification ×250.
Statistical analysis: Non-parametric Pairwise Wilcoxon Rank Sum Tests was used.

Work on `CC/C=C\C[C@H](O)/C=C/C=C\C/C=C\C/C=C\CCCC(=O)OCC` [DS102, 15(S)-hydroxy-(5Z,8Z,11Z,13E,17Z)-eicosapentaenoic acid ethyl ester] yielded a Kidney thrombi (n = 4) of 0, a Liver thrombi (n = 4) of 0 and a Lung thrombi (n = 4) of 0. For the same compound, the “liver iron accumulation (Perls' staining)” value (vs vehicle) was “significant reduction” and the “thrombi formation in liver” value (vs vehicle) was “significant reduction”.
